From the NIST ThermoML archive (doi:10.1021/je400157s)

Experiments:
[1] = Liquid; for mass density: 101.33 kPa, Vibrating tube method; for speed of sound: Pulse-echo method
[2] = molar heat capacity at constant pressure; conditions: 101.33 kPa, Liquid, Small sample (50 mg) DSC

CCCCCCCC(=O)OCC [ethyl octanoate]
Conditions	mass density, [1] [kg/m3]	molar heat capacity at constant pressure, [2] [J/K/mol]
278.15 K	879.5	–
283.15 K	875.22	–
285.01 K	–	338
288.15 K	870.94	–
288.16 K	–	339.38
293.15 K	866.65	341.09
298.15 K	862.36	343.12
303.15 K	858.07	–
303.16 K	–	345.31
308.15 K	853.76	347.48
313.15 K	849.46	349.66
318.15 K	845.14	–
318.16 K	–	351.96
323.15 K	840.81	354.35
328.14 K	–	356.9
328.15 K	836.47	–
333.15 K	832.12	358.95
338.15 K	827.76	361.55
343.15 K	823.39	–
343.16 K	–	363.7
343.78 K	–	364.29
348.15 K	819	–
353.15 K	814.59	–
358.15 K	810.17	–

[1]
Conditions	speed of sound [m/s]
292.9 K, 101320 kPa	1668.8
292.91 K, 45590 kPa	1484.7
292.91 K, 60790 kPa	1539.2
292.91 K, 75990 kPa	1590
292.91 K, 91180 kPa	1638.3
292.92 K, 15200 kPa	1359
292.92 K, 30390 kPa	1426.7
292.94 K, 100 kPa	1281.8
298.2 K, 45590 kPa	1468.7
298.2 K, 60790 kPa	1523.7
298.2 K, 75990 kPa	1575
298.2 K, 91180 kPa	1623.9
298.21 K, 30390 kPa	1407.9
298.21 K, 101320 kPa	1654.1
298.22 K, 100 kPa	1261.5
298.22 K, 15200 kPa	1340.8
303.13 K, 45590 kPa	1453.6
303.13 K, 60790 kPa	1509.1
303.13 K, 75990 kPa	1561.4
303.13 K, 91180 kPa	1610.1
303.13 K, 101320 kPa	1639.9
303.14 K, 15200 kPa	1324.2
303.14 K, 30390 kPa	1391.8
303.2 K, 100 kPa	1242.5
308.11 K, 15200 kPa	1307.5
308.11 K, 30390 kPa	1376.3
308.11 K, 45590 kPa	1438.7
308.11 K, 60790 kPa	1494.9
308.11 K, 75990 kPa	1547.2
308.11 K, 91180 kPa	1596.5
308.11 K, 101320 kPa	1627.7
308.17 K, 100 kPa	1223.6
313.09 K, 60800 kPa	1480.5
313.09 K, 91180 kPa	1582.8
313.1 K, 75990 kPa	1533
313.1 K, 101320 kPa	1614.8
313.11 K, 15200 kPa	1290.2
313.11 K, 30390 kPa	1360.2
313.11 K, 45590 kPa	1423.1
313.15 K, 100 kPa	1205
318.24 K, 30390 kPa	1343.9
318.26 K, 15200 kPa	1273
318.26 K, 45590 kPa	1407.4
318.26 K, 60800 kPa	1466
318.26 K, 75990 kPa	1519.4
318.26 K, 91180 kPa	1569.6
318.27 K, 101320 kPa	1601.6
318.32 K, 100 kPa	1185.7

CCCCCCCCCC(=O)OCC [ethyl decanoate]
Conditions	mass density, [1] [kg/m3]	molar heat capacity at constant pressure, [2] [J/K/mol]
283.15 K	872.11	–
286.16 K	–	397.73
288.15 K	868.06	398.53
293.15 K	864	400.88
298.15 K	859.94	403.34
303.15 K	855.88	–
303.16 K	–	405.67
308.14 K	851.82	–
308.16 K	–	408.17
313.14 K	847.75	–
313.16 K	–	410.93
318.15 K	843.68	413.64
323.15 K	839.6	416.52
328.15 K	835.52	–
328.16 K	–	419.55
333.14 K	–	422.31
333.15 K	831.43	–
338.14 K	827.33	–
338.15 K	–	425.46
341.11 K	–	427.36
343.15 K	823.23	–
348.15 K	819.11	–
353.14 K	814.99	–

[1]
Conditions	speed of sound [m/s]
292.9 K, 30390 kPa	1453.5
292.9 K, 45590 kPa	1511.7
292.9 K, 60790 kPa	1565.9
292.9 K, 75990 kPa	1616.7
292.9 K, 101320 kPa	1693.9
292.91 K, 15200 kPa	1389.4
292.91 K, 91180 kPa	1664.3
292.92 K, 100 kPa	1313.8
298.17 K, 30390 kPa	1436.1
298.17 K, 45590 kPa	1494.9
298.17 K, 60790 kPa	1549.4
298.17 K, 75990 kPa	1601.3
298.17 K, 91180 kPa	1648.6
298.17 K, 101320 kPa	1678.8
298.18 K, 100 kPa	1293.9
298.18 K, 15200 kPa	1370.6
303.16 K, 100 kPa	1275.2
303.16 K, 30390 kPa	1419.1
303.16 K, 45590 kPa	1479.6
303.16 K, 60790 kPa	1534.7
303.16 K, 75990 kPa	1586.9
303.16 K, 91180 kPa	1635
303.16 K, 101320 kPa	1665.9
303.17 K, 15200 kPa	1353.1
308.13 K, 45590 kPa	1464.6
308.13 K, 75990 kPa	1572.1
308.13 K, 101320 kPa	1652.9
308.14 K, 100 kPa	1256.8
308.14 K, 15200 kPa	1335.4
308.14 K, 30390 kPa	1403
308.14 K, 60790 kPa	1520.1
308.14 K, 91180 kPa	1621.8
313.09 K, 45590 kPa	1449.8
313.09 K, 75990 kPa	1559.2
313.09 K, 91180 kPa	1608.6
313.09 K, 101320 kPa	1639
313.1 K, 30390 kPa	1387.5
313.1 K, 60790 kPa	1506.2
313.11 K, 100 kPa	1238.5
313.11 K, 15200 kPa	1318.7
318.26 K, 75990 kPa	1544.9
318.26 K, 91180 kPa	1594.7
318.26 K, 101320 kPa	1626.5
318.27 K, 15200 kPa	1301.6
318.27 K, 30390 kPa	1371.7
318.27 K, 45590 kPa	1434.9
318.27 K, 60790 kPa	1491.6
318.28 K, 100 kPa	1219.7
